Test results reported in PubChem BioAssay (NCI).
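Compound exposure: 48 hours, 5 concentrations, 96-well plates. GI50 = concentration required for 50% inhibition of growth. Definition used: TGI = concentration required for complete inhibition of growth.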

What was measured:
Assay in all cases: inhibition of tumour cell growth, NCI panel, 48 h
TK-10 renal = tested on: TK-10 renal
UACC-62 melanoma = tested on: UACC-62 melanoma
IGROV1 ovarian = tested on: IGROV1 ovarian
OVCAR-8 ovarian = tested on: OVCAR-8 ovarian
SK-MEL-2 melanoma = tested on: SK-MEL-2 melanoma
SN12C renal = tested on: SN12C renal
UACC-257 melanoma = tested on: UACC-257 melanoma
MALME-3M melanoma = tested on: MALME-3M melanoma
HOP-62 NSCLC = tested on: HOP-62 NSCLC
A498 renal = tested on: A498 renal

Compound	TGI (TK-10 renal) [µM]	TGI (UACC-62 melanoma) [µM]	TGI (IGROV1 ovarian) [µM]	TGI (OVCAR-8 ovarian) [µM]	TGI (SK-MEL-2 melanoma) [µM]	TGI (SN12C renal) [µM]	TGI (UACC-257 melanoma) [µM]	TGI (MALME-3M melanoma) [µM]	TGI (HOP-62 NSCLC) [µM]	TGI (A498 renal) [µM]	GI50 (TK-10 renal) [µM]	GI50 (UACC-62 melanoma) [µM]	GI50 (A498 renal) [µM]	GI50 (IGROV1 ovarian) [µM]	GI50 (OVCAR-8 ovarian) [µM]	GI50 (SK-MEL-2 melanoma) [µM]	GI50 (SN12C renal) [µM]	GI50 (HOP-62 NSCLC) [µM]	GI50 (UACC-257 melanoma) [µM]	GI50 (MALME-3M melanoma) [µM]
CC(=O)OCCc1cccnc1/C=N/O	> 100	> 100	> 100	> 100	> 100	> 100	> 100	> 100	> 100	–	–	–	–	–	–	–	–	–	–	–
O=C(O)Cc1c[nH]c2ccc(F)cc12	> 100	> 100	> 100	> 100	> 100	> 100	> 100	–	> 100	> 100	–	–	–	–	–	–	–	–	–	–
CNC(=O)c1cc(Oc2ccc3c(c2)sc2nc(-c4ccc(N)cc4)cn23)ccn1	> 100	> 100	> 100	> 100	> 100	> 100	–	–	> 100	0.65	0.278	0.0982	0.0762	0.609	0.39	0.332	0.759	0.346	–	–
OCCNCO	> 100	> 100	> 100	> 100	> 100	> 100	> 100	–	> 100	> 100	–	–	–	–	–	–	–	–	–	–
CCCCCCCCCCCCCCC1OC(=O)c2ccccc21 (stereo not drawn)	> 100	> 100	> 100	> 100	–	75.9	> 100	> 100	> 100	> 100	–	–	–	–	–	–	–	–	–	–
CC(=O)/C=C/c1cccc(N=S)c1	> 89.9	> 57.2	> 48.4	31	–	87.2	> 67.4	> 100	> 100	78.7	–	–	–	–	–	–	–	–	–	–
O=C(Nc1ccccc1[N+](=O)[O-])c1ccccc1	> 100	> 100	> 100	> 100	–	> 100	> 100	> 100	> 100	> 100	–	–	–	–	–	–	–	–	–	–
ClCc1ccccc1CSc1ncnc2nc[nH]c12	–	> 60	> 60	> 60	–	> 60	> 60	> 60	> 60	> 60	–	> 60	54.1	> 60	> 60	–	> 60	> 60	> 60	> 60
COc1nc2c(cc1S(=O)(=O)c1ccccc1)CCc1c-2cnn1-c1ccccc1Cl	–	> 100	> 100	> 100	> 100	> 100	> 100	–	> 100	–	–	7.29	–	> 100	8.7	71.7	19.6	> 100	21.8	–
Cc1c(C(=O)/C=C/c2cccc3ccccc23)[n+](=O)c2ccccc2n1[O-]	34.6	23.9	48.7	24.9	–	29.8	26.7	34.9	29.6	30.8	–	–	–	–	–	–	–	–	–	–
Cc1cc(C)nc(NS(=O)(=O)c2ccc(NC(=O)c3cccc4c(=O)c5ccccc5[nH]c34)cc2)n1	51	44.5	68.1	41.1	–	32.8	33.9	33.8	56.7	34.9	–	–	–	–	–	–	–	–	–	–
CCC1CCC2CCCC(C)N12 (stereo not drawn)	> 100	> 100	> 100	> 100	> 100	> 100	> 100	> 100	> 100	–	–	–	–	–	–	–	–	–	–	–
O=C1Oc2cc3c(c4cccc1c24)OCN(c1ccc(Cl)cc1)C3	> 100	> 75	> 100	> 100	–	29.1	> 100	> 60.7	> 100	> 100	–	–	–	–	–	–	–	–	–	–
Cc1cccc2c3ccc4c(c3n(C)c12)C(=O)C=CC4=O	> 100	> 100	> 100	> 100	> 100	> 100	> 100	> 100	> 100	–	–	–	–	–	–	–	–	–	–	–
CC(C)(C)C1=NC(S)NC(CCC(=O)Nc2ccccc2[N+](=O)[O-])=C1 (stereo not drawn)	> 100	> 100	> 100	> 100	> 100	> 100	> 100	> 100	> 100	–	–	–	–	–	–	–	–	–	–	–
O=[N+]([O-])c1ccc(NSc2ccccc2)cc1	> 100	55.7	27.7	45.6	> 100	35.5	> 100	> 100	> 100	–	–	–	–	–	–	–	–	–	–	–
